Data reported in patent US20240238247A1, “METHOD OF TREATING EXPRESSIVE LANGUAGE DEFICIT IN AUTISTIC HUMANS” (AMS Therapeutics, priority 2022, published 2024).
“Also recorded” adds a separate entry of the source.

Assays:
Assay type in all cases: in vivo
[1] = test system: autistic human patients; assay: Mood graded on 7-point scale (-3 to +3 vs baseline), based on Aberrant Behavior Checklist, in autistic patients treated with ETS; conditions: for Improvement Over Baseline, Mood: after six months of ETS therapy
Description: (§1) To assess the effectiveness of ethosuximide as a pharmacological treatment for expressive language deficit, 24 human patients were treated with ethosuximide (ETS) for at least one month, more preferably six months or longer, and their language, social, and behavioral skills were monitored throughout the course of treatment, typically every 1-3 months. Study participants (subjects) were divided into four treatment groups based on neurodevelopmental level (mental status): normal IQ (NIQ), borderline IQ (BIQ), mild mental retardation (mMR), and moderate mental retardation (moMR). Language skills (expressiveness, receptivity), social behavior (social interaction, eye contact, participation), and mood (affect, irritability, agitation) were evaluated at various points in time. Verbal output was graded using a 7-point scale (0-6), where 0=nonverbal, 1=echolalic (the patient can respond by echoing the speaker), 2=single words (the patient can respond in single words), 3=phrases (the patient can respond in a simple phrase), 4=sentences (the patient can respond in a full sentence), 5=spontaneous speech (the patient can speak spontaneously), and 6=mutual speech (the patient can have a true conversation with another person). Social behavior and mood symptoms, based on those described in the Aberrant Behavior Checklist, an established behavioral rating system used in evaluating patients with intellectual disabilities (see Aman, M. G., et al., “The Aberrant Behavior Checklist: A behavior rating scale for the assessment of treatment effects,” American Journal of Mental Deficiency, 89(5):485-491 (1985), incorporated by reference herein), were also graded on a 7-point scale (0±3). […] Social behavior and mood data are presented below in Table 8. To evaluate drug efficacy and onset of action, each patient was monitored for changes in language, social behavior, and mood at various times after commencement of ETS therapy. Performance characteristics observed for each function (expressive language, mood, behavior) are summarized in Table 6, at t=1 month after commencement of treatment and t=3 months after commencement of treatment.

[2] = test system: autistic human patients; assay: Social behavior graded on 7-point scale (-3 to +3 vs baseline), based on Aberrant Behavior Checklist, in autistic patients treated with ETS; conditions: for Improvement Over Baseline, Social behavior: after six months of ETS therapy
Description: as §1

[3] = test system: autistic human patients; assay: Tolerability / side effects of ETS treatment in the study patients
Excerpt: Common side effects reported in the literature for patients receiving ethosuximide treatment for childhood absence epilepsy include abdominal distress, diarrhea, weight loss, hyperactivity, lethargy, leukopenia, and depression. Very few of these symptoms were reported or observed in the patients participating in the study herein described. Eleven patients stopped ETS treatment after 6 months or less. Five of these patients dropped out for non-medical reasons.

[4] = test system: autistic human patients with expressive language deficit; assay: Expressive language (verbal output) graded on 7-point scale (0-6) in autistic patients treated with ethosuximide (ETS); conditions: for mean expressive language score after six months (Rx): FIG. 1; for Improvement Over Baseline, Expressive language: after six months of ETS therapy; for mean improvement in expressive language score: normal IQ patients (N=8) treated more than one month, 7-point scale of Table 1
Description: To assess the effectiveness of ethosuximide as a pharmacological treatment for expressive language deficit, 24 human patients were treated with ethosuximide (ETS) for at least one month, more preferably six months or longer, and their language, social, and behavioral skills were monitored throughout the course of treatment, typically every 1-3 months. Study participants (subjects) were divided into four treatment groups based on neurodevelopmental level (mental status): normal IQ (NIQ), borderline IQ (BIQ), mild mental retardation (mMR), and moderate mental retardation (moMR). Language skills (expressiveness, receptivity), social behavior (social interaction, eye contact, participation), and mood (affect, irritability, agitation) were evaluated at various points in time. Verbal output was graded using a 7-point scale (0-6), where 0=nonverbal, 1=echolalic (the patient can respond by echoing the speaker), 2=single words (the patient can respond in single words), 3=phrases (the patient can respond in a simple phrase), 4=sentences (the patient can respond in a full sentence), 5=spontaneous speech (the patient can speak spontaneously), and 6=mutual speech (the patient can have a true conversation with another person). [table] To evaluate drug efficacy and onset of action, each patient was monitored for changes in language, social behavior, and mood at various times after commencement of ETS therapy. Performance characteristics observed for each function (expressive language, mood, behavior) are summarized in Table 6, at t=1 month after commencement of treatment and t=3 months after commencement of treatment.

[5] = normal IQ patients, Aberrant Behavior Checklist methodology

CCC1(C)CC(=O)NC1=O (centres unmarked) [ETS, 2-ethyl-2-methylsuccinimide]
Improvement Over Baseline, Mood ([1]; BIQ): +1.4
Improvement Over Baseline, Mood ([1]; NIQ): +1.2
Mood / focus observation ([1]; Patient B, 3 months after onset of treatment): more focused and calmer; also recorded: focused; also recorded: calmer
Mood: calmer, score change ([1]; after 1 month of treatment): Calmer (+1)
Mood: more focused, score change ([1]; after 1 month of treatment): More focused (+1)
Mood, observed performance ([1]; after 3 months of treatment): Fewer tantrums
Improvement Over Baseline, Mood ([1]; mMR): +1.0
Improvement Over Baseline, Mood ([1]; moMR): 0.0
Improvement Over Baseline, Mood ([1]; moMR, listed as ethosuximide): no change
gain in mood [1, 5]: +1.2 points
Improvement Over Baseline, Social behavior ([2]; BIQ): +1.5
Improvement Over Baseline, Social behavior ([2]; NIQ): +2.0
Social behavior, observed performance ([2]; after 1 month of treatment): More engaged
Social behavior: increased eye contact, score change ([2]; after 1 month of treatment): contact (+1)
Social behavior, observed performance ([2]; after 3 months of treatment): Sits in groups
Improvement Over Baseline, Social behavior ([2]; mMR): +1.0
Improvement Over Baseline, Social behavior ([2]; moMR): +1.0
gain in social behavior [2, 5]: +2 points
tolerability ([3]; all ages evaluated (3-24 years), 150-1000 mg b.i.d.): well tolerated
literature side effects (abdominal distress, diarrhea, weight loss, hyperactivity, lethargy, leukopenia, depression) reported or observed ([3]; patients participating in the study): Very few
mean expressive language score after six months (Rx) ([4]; BIQ group, N=4, baseline 1.7, 0-6 scale): 2.75
Improvement Over Baseline, Expressive language ([4]; BIQ): +1.0
mean expressive language score after six months (Rx) ([4]; NIQ group, N=8, baseline 2.5, 0-6 scale): 4.4
Improvement Over Baseline, Expressive language ([4]; NIQ): +2.0
expressive language score ([4]; Patient A, after 3 months, baseline score 2 (single words)): 3
expressive language, observation ([4]; Patient A, at 6-9 months): responding in full sentences
expressive language, observation ([4]; Patient A, at 9-12 months): speak spontaneously and even ask questions
Language development ([4]; Patient A, baseline SW, 1 mo.): Increased
Language development (expressive language class) ([4]; Patient A, baseline SW, 3 mo.): PH (Phrases)
Language development (expressive language class) ([4]; Patient A, baseline SW, 6 mo.): SN/SP
Language development (expressive language class) ([4]; Patient A, baseline SW, 9 mo.): SN/SP
Language development (expressive language class) ([4]; Patient A, baseline SW, 12 mo.): SN/SP/MU
expressive language, observation ([4]; Patient A, one month after onset of ETS treatment, baseline score 2): saying more words
Language development (4-word PH) ([4]; Patient B, baseline EC/2-word PH, 3 mo.): 4-word
Language development (expressive language class) ([4]; Patient B, baseline EC/2-word PH, 6 mo.): SN (Sentences)
Language development (expressive language class) ([4]; Patient B, baseline EC/2-word PH, 9 mo.): SN/SP
expressive language, observation ([4]; Patient B, by month 6): speak in sentences
expressive language, observation ([4]; Patient B, by month 9): converse spontaneously at times
expressive language, observation ([4]; Patient B, three months after onset of treatment, echolalic, some two-word phrases before): 3 and 4-word phrases
expressive language skills during treatment ([4]; Patient C, autistic child, 6 months of ETS, FIG. 3): steadily improved
expressive language, observation ([4]; Patients A and B (normal IQ), by 9 months from commencement of treatment, FIG. 2): some spontaneous speech
language skills after ETS treatment was stopped ([4]; Patients C (stopped at 6 months) and D (stopped at 9 months), evaluated several months later, FIG. 3): continued to improve
Expressive language: increased word count (talking more), score change ([4]; after 1 month of treatment): count (+1)
Expressive language, observed performance ([4]; after 3 months of treatment): 2-word phrases and Listening better and makes wants clearer
effect on expressive language skills ([4]; both epileptic (7 of 24) and non-epileptic patients): improved
mean expressive language score after six months (Rx) ([4]; mMR group, N=6, baseline 1.3, 0-6 scale): 2.5
Improvement Over Baseline, Expressive language ([4]; mMR): +1.2
mean expressive language score after six months (Rx) ([4]; moMR group, N=2, baseline 0.5, 0-6 scale): 1.0
Improvement Over Baseline, Expressive language ([4]; moMR): +0.5
mean improvement in expressive language score [4]: 1.9 points
mean improvement in expressive language score ([4]; listed as ethosuximide): about 2 points
improvements in expressive language and social skills ([4]; one month after commencing daily treatment): evident
retention of language gains after discontinuation ([4]; patients who discontinued treatment (after six months)): did not lose their language gains
